# Measurements taken from US11053248B2, “[1,2,4]triazolo[1,5-a]pyrimidine compounds as PDE2 inhibitors” (Janssen Pharmaceutica NV, priority 2016, dated 2021).
# pIC50: −log10 of the molar value. Read-outs that look alike come from different tables or passages of the source.
# What was measured:
# hPDE3B = assay: In vitro assay PDE3 (SPA, 3H-cAMP); format: biochemical, human; design: hPDE3B Emax: unit not given here; conditions: for hPDE3B pIC50: 0.4 μM cAMP substrate
# hPDE2A = target: T1, hPDE2A (Homo sapiens, UniProt O00408); assay: In vitro assay PDE2A (SPA, 3H-cGMP); format: biochemical; conditions: for Emax: read-out: hPDE2A Emax
# T1 construct: made in house; host or cells: Sf9 insect cells (baculovirus)
# T1 sequence (O00408 whole entry): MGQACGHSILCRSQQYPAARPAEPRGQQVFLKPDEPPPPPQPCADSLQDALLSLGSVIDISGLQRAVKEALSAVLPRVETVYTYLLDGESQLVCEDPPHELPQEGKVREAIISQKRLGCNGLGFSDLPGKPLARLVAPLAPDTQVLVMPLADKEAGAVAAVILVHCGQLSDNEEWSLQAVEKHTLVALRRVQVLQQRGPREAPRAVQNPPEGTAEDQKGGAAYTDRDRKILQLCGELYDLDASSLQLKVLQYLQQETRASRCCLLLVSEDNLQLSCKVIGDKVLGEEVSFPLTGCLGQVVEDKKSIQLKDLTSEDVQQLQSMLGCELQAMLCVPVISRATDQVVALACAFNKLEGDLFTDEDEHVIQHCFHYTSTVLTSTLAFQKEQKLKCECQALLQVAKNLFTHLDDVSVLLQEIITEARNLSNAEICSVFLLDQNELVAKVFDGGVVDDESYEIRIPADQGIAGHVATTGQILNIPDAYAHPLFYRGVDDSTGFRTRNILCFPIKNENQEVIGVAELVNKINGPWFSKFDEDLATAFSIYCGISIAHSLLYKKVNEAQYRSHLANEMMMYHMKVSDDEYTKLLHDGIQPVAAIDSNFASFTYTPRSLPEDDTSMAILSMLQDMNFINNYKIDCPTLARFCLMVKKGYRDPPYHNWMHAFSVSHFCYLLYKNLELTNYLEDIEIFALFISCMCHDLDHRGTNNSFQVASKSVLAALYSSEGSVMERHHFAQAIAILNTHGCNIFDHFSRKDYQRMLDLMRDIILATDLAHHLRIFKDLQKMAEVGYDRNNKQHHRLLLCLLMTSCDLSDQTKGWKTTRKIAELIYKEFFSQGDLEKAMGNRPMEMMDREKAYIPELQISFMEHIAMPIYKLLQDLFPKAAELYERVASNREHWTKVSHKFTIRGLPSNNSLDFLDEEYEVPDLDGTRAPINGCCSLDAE
# Experimental: Human recombinant PDE2A (hPDE2A) was expressed in Sf9 cells using a recombinant rPDE10A baculovirus construct. Cells were harvested after 48 h of infection and the hPDE2A protein was purified by metal chelate chromatography on Ni-sepharose 6FF. Tested compounds were dissolved and diluted in 100% DMSO to a concentration 100 fold of the final concentration in the assay. Compound dilutions (0.4 μl) were added in 384 well plates to 20 μl of incubation buffer (50 mM Tris pH 7.8, 8.3 mM MgCl2, 1.7 mM EGTA). 10 μl of hPDE2A enzyme in incubation buffer was added and the reaction was started by addition of 10 μl substrate to a final concentration of 10 μM cGMP and 0.01 μCi ^3H-cGMP. The reaction was incubated for 45 minutes at room temperature. […] After sedimentation of the beads during 30 minutes the radioactivity was measured in a Perkin Elmer Topcount scintillation counter and results were expressed as cpm. For blanc values the enzyme was omitted from the reaction and replaced by incubation buffer. Control values were obtained by addition of a final concentration of 1% DMSO instead of compound.
# hPDE10A2 = hPDE10A2 (Homo sapiens, UniProt Q9Y233); assay: biochemical; conditions: for IC50: 60 nM cAMP substrate, read-out: hPDE10A2 pIC50 (converted); for Emax: read-out: hPDE10A2 Emax
# hPDE10A2, sequence (Q9Y233 267-1055): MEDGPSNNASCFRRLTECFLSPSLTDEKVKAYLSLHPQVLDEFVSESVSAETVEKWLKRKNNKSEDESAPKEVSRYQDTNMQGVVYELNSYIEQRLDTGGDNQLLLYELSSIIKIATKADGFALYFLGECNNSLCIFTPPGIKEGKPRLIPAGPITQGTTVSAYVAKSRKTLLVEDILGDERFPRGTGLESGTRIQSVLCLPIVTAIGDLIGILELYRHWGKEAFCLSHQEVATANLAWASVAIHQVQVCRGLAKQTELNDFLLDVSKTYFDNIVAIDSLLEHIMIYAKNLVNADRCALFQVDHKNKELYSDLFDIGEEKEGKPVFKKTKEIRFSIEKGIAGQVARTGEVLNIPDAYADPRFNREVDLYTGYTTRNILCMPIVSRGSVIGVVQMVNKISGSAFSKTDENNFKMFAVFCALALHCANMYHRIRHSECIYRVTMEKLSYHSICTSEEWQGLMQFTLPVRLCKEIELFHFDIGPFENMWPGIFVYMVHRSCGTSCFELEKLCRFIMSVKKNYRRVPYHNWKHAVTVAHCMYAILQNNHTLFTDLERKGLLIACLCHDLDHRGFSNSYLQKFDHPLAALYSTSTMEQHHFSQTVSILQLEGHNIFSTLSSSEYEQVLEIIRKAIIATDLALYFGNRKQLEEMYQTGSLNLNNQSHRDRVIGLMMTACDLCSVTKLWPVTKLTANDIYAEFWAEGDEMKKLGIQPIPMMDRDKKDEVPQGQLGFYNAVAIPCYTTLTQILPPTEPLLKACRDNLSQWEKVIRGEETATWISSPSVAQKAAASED
# Experimental: Rat recombinant PDE10A (rPDE10A2) was expressed in Sf9 cells using a recombinant rPDE10A baculovirus construct. Cells were harvested after 48 h of infection and the rPDE10A protein was purified by metal chelate chromatography on Ni-sepharose 6FF. Tested compounds were dissolved and diluted in 100% DMSO to a concentration 100 fold of the final concentration in the assay. Human recombinant PDE10A […] was expressed in Sf9 cells using a recombinant hPDE10A baculovirus that was made and amplified in house. Cells were harvested after 72 h of infection and the hPDE10A protein was purified by metal chelate chromatography on Ni-sepharose. Compound dilutions (0.4 μl) were added in 384 well plates to 20 μl of incubation buffer (50 mM Tris pH 7.8, 8.3 mM MgCl2, 1.7 mM EGTA). […] of rPDE10A or hPDE10A enzyme in incubation buffer was added and the reaction was started by addition of 10 μl substrate to a final concentration of 60 nM cAMP and 0.008 μCi ^3H-cAMP. The reaction was incubated for 60 minutes at room temperature. […] After sedimentation of the beads during 30 minutes the radioactivity was measured in a Perkin Elmer Topcount scintillation counter and results were expressed as cpm. For blanc values the enzyme was omitted from the reaction and replaced by incubation buffer. Control values were obtained by addition of a final concentration of 1% DMSO instead of compound.
# PDE2A = target: T2, PDE2A (Rattus norvegicus, UniProt Q01062); assay: PDE2 occupancy by ex-vivo autoradiography with [3H]B-17a; format: in vivo; conditions: for receptor occupancy at 10 mg/kg / ED50: rat; for ED50: read-out: PDE occupancy ED50, route PO (oral), male Wistar rats, dose producing 50% occupancy
# T2 construct: from tissue; host or cells: rat brain striatal sections (ex vivo)
# T2 sequence (Q01062 1-928): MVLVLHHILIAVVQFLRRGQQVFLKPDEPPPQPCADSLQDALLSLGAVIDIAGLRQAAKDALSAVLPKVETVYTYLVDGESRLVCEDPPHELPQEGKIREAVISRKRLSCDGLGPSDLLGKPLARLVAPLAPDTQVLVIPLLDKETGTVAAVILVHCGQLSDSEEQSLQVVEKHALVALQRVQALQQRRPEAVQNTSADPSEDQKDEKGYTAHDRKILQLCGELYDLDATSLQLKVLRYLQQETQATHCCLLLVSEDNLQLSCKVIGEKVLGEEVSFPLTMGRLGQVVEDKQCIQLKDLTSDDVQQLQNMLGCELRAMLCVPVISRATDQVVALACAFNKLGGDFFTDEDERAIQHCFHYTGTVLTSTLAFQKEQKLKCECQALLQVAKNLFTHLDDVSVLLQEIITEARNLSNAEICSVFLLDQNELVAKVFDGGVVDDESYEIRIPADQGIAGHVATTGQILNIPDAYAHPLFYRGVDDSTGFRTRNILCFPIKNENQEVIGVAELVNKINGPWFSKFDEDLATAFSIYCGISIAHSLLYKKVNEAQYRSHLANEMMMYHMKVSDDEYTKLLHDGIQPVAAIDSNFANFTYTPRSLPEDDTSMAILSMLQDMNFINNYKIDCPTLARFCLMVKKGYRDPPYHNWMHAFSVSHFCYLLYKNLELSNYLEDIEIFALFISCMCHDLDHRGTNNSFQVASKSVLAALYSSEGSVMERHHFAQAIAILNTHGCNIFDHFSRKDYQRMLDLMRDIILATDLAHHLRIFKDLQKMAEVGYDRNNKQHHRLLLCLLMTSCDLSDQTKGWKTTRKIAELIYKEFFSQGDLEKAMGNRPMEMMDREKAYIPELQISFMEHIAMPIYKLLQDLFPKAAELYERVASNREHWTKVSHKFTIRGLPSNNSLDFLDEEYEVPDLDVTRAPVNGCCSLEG
# Experimental: PDE2 Occupancy by Test Compounds Methods
# Brains were immediately removed from the skull and rapidly frozen in dry-ice cooled 2-methylbutane (−40° C.).
# After thawing, sections were dried under a cold stream of air and incubated for one minute with 30 nM [^3H]B-17a in Tris-HCl (50 mM, pH7.4) containing 0.3% BSA. Brain sections from drug-treated and vehicle-treated animals were incubated in parallel. […] After incubation, the excess of [^3H]B-17a was washed off in ice-cold buffer 2 times 10 minutes, followed by a quick dip in distilled water. The sections were then dried under a stream of cold air.
# Brain sections were loaded in a β-imager (Biospace, Paris) for 4 h and radioactivity emerging from delineated brain area was quantified using the Beta vision program (Biospace, Paris). Specific binding was determined as the difference between total binding in the striatum and non-specific binding in the cerebellum. Percentage receptor occupancy of the drug administered to the animal corresponded to 100% minus the percentage receptor labeled in the treated animal. For the determination of ED50-values, the percentage of receptor occupancy was plotted against dose and the sigmoidal log dose-effect curve of best fit was calculated by non-linear regression analysis, using the GraphPad Prism program.
# [1] = sc, read-out: PDE2 occupancy at 10 mg/kg, route SC (subcutaneous), 10 mg/kg, male Wistar rats, striatum, percentage occupancy
# [2] = route SC (subcutaneous), 10 mg/kg, male Wistar rats, striatum, percentage occupancy, read-out: PDE2 occupancy at 10 mg/kg
# [3] = po, read-out: PDE2 occupancy at 10 mg/kg, route PO (oral), 10 mg/kg, male Wistar rats, striatum, percentage occupancy
# [4] = po, read-out: PDE2 occupancy at 10 mg/kg
Structure (SMILES),hPDE3B Emax (hPDE3B),hPDE3B pIC50 (hPDE3B),"IC50 (hPDE2A; 10 μM cGMP substrate, read-out: hPDE2A pIC50 (converted)) [µM]",Emax (hPDE2A) [%],IC50 (hPDE10A2) [µM],Emax (hPDE10A2) [%],receptor occupancy at 10 mg/kg (PDE2A; [1]) [%],pIC50 (hPDE2A),receptor occupancy at 10 mg/kg (PDE2A; [2]) [%],receptor occupancy at 10 mg/kg (PDE2A; [3]) [%],ED50 (PDE2A; po) [mg/kg],"PDE2 occupancy at 10 mg/kg (PDE2A; route PO (oral), 10 mg/kg, male Wistar rats, striatum, percentage occupancy)","receptor occupancy at 10 mg/kg (PDE2A; route PO (oral), 10 mg/kg, male Wistar rats, striatum, percentage occupancy, read-out: PDE2 occupancy at 10 mg/kg) [%]",receptor occupancy at 10 mg/kg (PDE2A; [4]) [%]
C[C@@H]1CCN(c2nccc3ccc(O)cc23)C[C@H]1c1cc(C(F)F)nc2ncnn12 [Compound 18],65,5.14,0.0251,101,0.331,97,-6,,,,,,,
C[C@@H]1CCN(c2cc(N3CCOCC3)ccn2)C[C@H]1c1cc(C(F)F)nc2ncnn12 [Compound 27],48,5.07,,100,2.63,80,,6.97,0,,,,,
Cc1cc([C@@H]2CN(c3nccc4ccc(Br)cc34)CC[C@H]2C)n2ncnc2n1 [Compound 2],89,5.45,,100,0.0741,102,,8.97,,96,2.6,,,
Cc1cc([C@@H]2CN(c3nccc4ccc(Cl)cc34)CC[C@H]2C)n2ncnc2n1 [Compound 3],88,5.49,,100,0.0832,100,,8.52,,90,2.12,89,,
C[C@@H]1CCN(c2nccc3[nH]ccc23)C[C@H]1c1cc(C(F)F)nc2ncnn12 [Compound 9],60,5.13,,101,0.708,92,36,7.90,,,,,,
C[C@@H]1CCN(c2cc(C#N)ccn2)C[C@H]1c1cc(C(F)F)nc2ncnn12 [Compound 22],82,5.5,,100,1.15,90,,7.17,,,,,0,
Cc1cccc2ccnc(N3CC[C@@H](C)C(c4cc(C(F)F)nc5ncnn45)C3)c12 (some centres unmarked) [Compound 41],65,5.14,,99,4.68,76,,6.51,-8,,,,,
COc1cccc2c(N3CC[C@@H](C)[C@H](c4cc(C(F)F)nc5ncnn45)C3)nccc12.Cl [Compound 10],84,5.53,,99,0.49,100,53,7.89,,,20,,,
C[C@@H]1CCN(c2ncnc3ccccc23)C[C@H]1c1cc(C(F)F)nc2ncnn12 [Compound 12],67,5.25,,100,0.646,96,,7.84,,,,,,1
C[C@@H]1CCN(c2cc(I)ccn2)C[C@H]1c1cc(C(F)F)nc2ncnn12 [Compound 16],95,6.19,,100,0.224,99,,7.74,-14,,,,,
C[C@@H]1CCN(c2ccnc3ccccc23)C[C@H]1c1cc(C(F)F)nc2ncnn12 [Compound 42],70,5.27,,99,1.23,91,,7.69,,,,,,-8
C[C@@H]1CCN(c2ccccn2)C[C@H]1c1cc(C(F)F)nc2ncnn12.Cl [Compound 32],38,<5,,86,1.66,87,,6.77,,,,,,18
C[C@@H]1CCN(c2ncc(Cl)c3ccccc23)C[C@H]1c1cc(C(F)F)nc2ncnn12 [Compound 6],67,5.21,,99,0.417,101,,8.05,,3,,,,
